The target of test [1] is T1, human GR (Homo sapiens, UniProt P04150).
T1 sequence (P04150 1-777): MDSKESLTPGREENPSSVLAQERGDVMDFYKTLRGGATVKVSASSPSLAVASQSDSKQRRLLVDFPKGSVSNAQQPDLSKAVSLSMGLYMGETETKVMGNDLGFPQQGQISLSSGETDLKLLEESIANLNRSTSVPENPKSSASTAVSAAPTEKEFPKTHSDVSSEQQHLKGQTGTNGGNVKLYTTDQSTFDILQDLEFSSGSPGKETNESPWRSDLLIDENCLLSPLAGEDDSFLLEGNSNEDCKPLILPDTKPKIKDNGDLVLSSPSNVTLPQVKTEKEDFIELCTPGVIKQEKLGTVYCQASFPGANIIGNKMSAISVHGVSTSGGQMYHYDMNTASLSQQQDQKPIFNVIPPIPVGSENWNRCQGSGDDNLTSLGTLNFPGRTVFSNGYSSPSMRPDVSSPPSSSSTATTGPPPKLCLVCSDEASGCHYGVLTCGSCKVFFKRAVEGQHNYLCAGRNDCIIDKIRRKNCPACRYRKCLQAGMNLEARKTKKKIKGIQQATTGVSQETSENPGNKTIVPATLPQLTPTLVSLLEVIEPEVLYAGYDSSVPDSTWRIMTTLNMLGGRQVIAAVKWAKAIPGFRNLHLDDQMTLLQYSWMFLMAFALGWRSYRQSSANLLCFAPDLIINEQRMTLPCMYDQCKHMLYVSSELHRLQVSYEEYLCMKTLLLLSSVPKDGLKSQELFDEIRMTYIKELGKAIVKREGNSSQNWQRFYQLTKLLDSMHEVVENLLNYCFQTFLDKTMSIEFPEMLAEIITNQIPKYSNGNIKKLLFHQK
As to the kind of experiment: Transrepression Assay (GITAR), TNFα-β-lactamase reporter gene in U937 cells. Type of test: cell-based. Further details: U937 cells contain an endogenous glucocorticoid receptor (GR); endogenous in cells; host or cells: U937 cells stably transfected with the TNF-α promoter/β-lactamase reporter only. The conditions noted are these: for EC50: IP = inflection point; for GITAR > GRAMM % SEP: separation of GITAR Emax over GRAMMER Emax; for Emax: U-937. The method in brief:
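Reporter readout used CCF2-AM loading for 70–90 min at room temperature after overnight (~18 h, 37 °C) PMA (5 ng/ml final) and LPS (100 ng/ml final) stimulation of compound-treated (30–45 min) TNFα-β-lactamase U937 cells expressing native GR. Activity was normalised to 100 nM dexamethasone repression.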
Background: A reporter such as luciferase makes a cellular process visible.

The target in test [2] is T1, human GR. Kind of test: Trans-Activation Modulation of Glucocorticoid Receptor (GRAMMER), MMTV-LUC reporter gene. Type of test: cell-based. Further details: endogenous in cells. The conditions noted are these: for Emax: A549; for EC50: A549 cells, IP = inflection point. The source says:
Trans-Activation Modulation of Glucocorticoid Receptor (GRAMMER)
This assay assesses the ability of test compounds to control transcription from the MMTV-LUC reporter gene in lung adenocarcinoma A549 cells or HeLa cells, a human […] cell line that naturally expresses the human GR. The assay measures induction of a modified MMTV LTR/promoter linked to the LUC reporter gene.
The routine transient assay consists of plating 7,000-25,000 cells/well of a white, clear-bottom 96-well plate. Alternatively, 384-well plates can be used at a cell concentration of 10,000/well. The media that the cells are plated in is “exponential growth medium” which consists of phenol red-free RPMI1640 containing 10% FBS, 4 mM L-glutamine, 20 mM HEPES, 10 ug/mL human insulin, and 20 ug/mL gentamicin. Incubator conditions are 37° C. and 5% CO2. The transfection is done in batch mode. The cells are trypsinized and counted to the right cell number in the proper amount of fresh media. It is then gently mixed with the FuGene6/DNA mix and plated onto the 96 or 384-well plate, all the wells receive 100 uL or 40 uL, respectively, of medium+lipid/DNA complex then incubated 37° C. overnight. The transfection cocktail consists of serum-free OptiMEM, FuGene6 reagent and DNA. The manufacturer's (Roche Biochemical) protocol for cocktail setup is as follows: The lipid to DNA ratio is approximately 2.5:1 and the incubation time is 20 min at room temperature. Sixteen to 24 hours after transfection, the cells are treated with dexamethasone to a final concentration of 10 nM as well as the compound of interest, such that final DMSO (vehicle) concentration is equal to or less than 1%. Each plate also contains samples that are treated with 10 nM dexamethasone alone, which is used as the 100% activity control. The cells are exposed to the compounds for 24 hours. After 24 hours, the cells are lysed by a Promega cell culture lysis buffer for approximately 30 min and then the luciferase activity in the extracts is assayed in the 96-well format luminometer. In 384-well format, Steady-Glo (Promega) or Steady-Lite (PerkinElmer) can be used by adding an equal volume of reagent to the media present in each well. Activity induced by 10 nM dexamethasone alone is set at 100% activity. Antagonist activity is calculated by determining the decrease in dexamethasone-induced activity in response to compound treatment relative to samples that were treated with dexamethasone alone. […] This transactivation assay can be performed in an agonist and antagonist mode to identify these different activities. […]

Setting [3] is: Table 1, U937 cells, read-out: Transrepression U937 Cells GITAR IP.
[4] abbreviates: 100 nM dexamethasone = 100% activity, read-out: maximal activity in the transrepression assay.
Setting [5] is: Table 1, U937 cells, activity repressed by 100 nM dexamethasone = 100%, read-out: Transrepression U937 Cells GITAR Emax (%).
[6] abbreviates: read-out: Transactivation A549 Cells GRAMMER Emax (%).
Where [7] appears, read: Table 1, read-out: Transactivation A549 Cells GRAMMER IP.
The mark [8] stands for this setting: Table 2, U937 cells, read-out: Transactiviation U937 Cells GITAR IP.
Setting [9] is: Table 2, U937 cells, activity repressed by 100 nM dexamethasone = 100%, read-out: Transactiviation U937 Cells GITAR Emax (%).
[10] abbreviates: read-out: Transactiviation A549 Cells GRAMMER Emax (%).
[11] abbreviates: Table 2, read-out: Transactiviation A549 Cells GRAMMER IP.

For the compound `CC(O)(C(N)=O)c1ccccc1CC[C@]1(O)CCC2=Cc3c(cnn3-c3ccc(F)cc3)C[C@@]21C` (single isomer, unassigned) [Example 150], the EC50 came out at 210 nM at human GR [1] (setting [3]) and 264 nM at human GR [2] (setting [7]). Also, on human GR [1] (Table 1), the “GITAR > GRAMM % SEP” value is 29%. For the same compound, the Emax is 5 to 100% on human GR [1] (setting [4]), 67% on human GR [1] (setting [5]) and 38% at human GR [2] (setting [6]).
As to `CC(C(N)=O)c1ccccc1CC[C@]1(O)CCC2=Cc3c(cnn3-c3ccc(F)cc3)C[C@@]21C` (single isomer, unassigned) [Example 196], the EC50 at human GR [1] (setting [3]) is 287 nM; on human GR [2] (setting [7]) it was 253 nM. Besides, the “GITAR > GRAMM % SEP” value on human GR [1] (Table 1) is reported as 20%. Moreover, the Emax is 5 to 100% on human GR [1] (setting [4]), 40% at human GR [1] (setting [5]) and 20% at human GR [2] (setting [6]).
In the case of `C[C@]12Cc3cnn(-c4ccc(F)cc4)c3C=C1CC[C@@]2(O)CCc1ccccc1C(F)C(N)=O` (single isomer, unassigned) [Example 198], the EC50 stood at 197 nM on human GR [1] (setting [3]) and 187 nM on human GR [2] (setting [7]). The “GITAR > GRAMM % SEP” value on human GR [1] (Table 1) was 23%. Also, the figures for the Emax on human GR [1] (setting [4]), on human GR [1] (setting [5]) and at human GR [2] (setting [6]) were 5 to 100%, 52% and 29%, respectively.
In the case of `C[C@]12Cc3cnn(-c4ccc(F)cc4)c3C=C1CC[C@@]2(O)CCc1ccccc1` [Example 2 WO 2004/075840 A2, reference compound], the values for the EC50 on human GR [1] (setting [8]) and at human GR [2] (setting [11]) were 204 nM and 230 nM, respectively. The “GITAR > GRAMM % SEP” value at human GR [1] (Table 2) is 5%. Further, the results for the Emax on human GR [1] (setting [9]) and on human GR [2] (setting [10]) were 78% and 73%, respectively.
On to `CCNC(=O)c1ccccc1CC[C@]1(O)CCC2=Cc3c(cnn3-c3ccc(F)cc3)C[C@@]21C` [Example 2, N-ethyl-2-{2-[(4αS,5R)-1-(4-fluorophenyl)-5-hydroxy-4α-methyl-1,4,4α,5,6,7-hexahydrocyclopenta[f]indazol-5-yl]ethyl}benzamide], for which the EC50 was found to be 88 nM at human GR [1] (setting [3]) and 39 nM at human GR [2] (setting [7]). On human GR [1] (Table 1), the “GITAR > GRAMM % SEP” value was 14%. The Emax on human GR [1] (setting [4]) was 5 to 100%; on human GR [1] (setting [5]) it was 65%; on human GR [2] (setting [6]), 51%.
In the case of `C[C@]12Cc3cnn(-c4ccc(F)cc4)c3C=C1CC[C@@]2(O)CCc1ccccc1CNS(=O)(=O)C1CC1` [Example 5, N-(2-{2-[(4αS,5R)-1-(4-fluorophenyl)-5-hydroxy-4α-methyl-1,4,4α,5,6,7-hexahydrocyclopenta[f]indazol-5-yl]ethyl}benzyl)cyclopropanesulfonamide], the results for the EC50 on human GR [1] (setting [3]) and on human GR [2] (setting [7]) were 179 nM and 138 nM, respectively. For the same compound, the figures for the Emax at human GR [1] (setting [4]), on human GR [1] (setting [5]) and at human GR [2] (setting [6]) were 5 to 100%, 64% and 40%, respectively.
Take `C[C@]12Cc3cnn(-c4ccc(F)cc4)c3C=C1CC[C@@]2(O)CCc1ccccc1N1CCC1=O` [Example 11, 1-(2-{2-[(4αS,5R)-1-(4-fluorophenyl)-5-hydroxy-4α-methyl-1,4,4α,5,6,7-hexahydrocyclopenta[f]indazol-5-yl]ethyl}phenyl)azetidin-2-one]: the results for the EC50 on human GR [1] (setting [3]) and on human GR [2] (setting [7]) were 208 nM and 290 nM, respectively. Further, the “GITAR > GRAMM % SEP” value at human GR [1] (Table 1) is listed as 17%. Moreover, the Emax at human GR [1] (setting [4]) is 5 to 100%; on human GR [1] (setting [5]), 57%; at human GR [2] (setting [6]) it was 39%.
In the case of `CC(=O)Nc1ccccc1CC[C@]1(O)CCC2=Cc3c(cnn3-c3ccc(F)cc3)C[C@@]21C` [Example 14, N-(2-{2-[(4αS,5R)-1-(4-fluorophenyl)-5-hydroxy-4α-methyl-1,4,4α,5,6,7-hexahydrocyclopenta[f]indazol-5-yl]ethyl}phenyl)acetamide], the EC50 on human GR [1] (setting [3]) is 193 nM; at human GR [2] (setting [7]) it was 175 nM. Moreover, at human GR [1] (Table 1), the “GITAR > GRAMM % SEP” value was 23%. The Emax at human GR [1] (setting [4]) is 5 to 100%; at human GR [1] (setting [5]), 79%; on human GR [2] (setting [6]) it was 55%.
For the compound `C[C@]12Cc3cnn(-c4ccc(F)cc4)c3C=C1CC[C@@]2(O)CCc1ccccc1NS(=O)(=O)C1CC1` [Example 15, N-(2-{2-[(4αS,5R)-1-(4-fluorophenyl)-5-hydroxy-4α-methyl-1,4,4α,5,6,7-hexahydrocyclopenta[f]indazol-5-yl]ethyl}phenyl)cyclopropanesulfonamide], the figures for the EC50 at human GR [1] (setting [3]) and on human GR [2] (setting [7]) were 242 nM and 236 nM, respectively. In addition, the “GITAR > GRAMM % SEP” value on human GR [1] (Table 1) turned out to be 36%. The Emax on human GR [1] (setting [4]) is 5 to 100%; on human GR [1] (setting [5]), 79%; at human GR [2] (setting [6]), 43%.
For the compound `C[C@]12Cc3cnn(-c4ccc(F)cc4)c3C=C1CC[C@@]2(O)CCc1ccccc1S(C)(=O)=O` [Example 19, (4αS,5R)-1-(4-fluorophenyl)-4α-methyl-5-{2-[2-(methylsulfonyl)phenyl]ethyl}-1,4,4α,5,6,7-hexahydrocyclopenta[f]indazol-5-ol], the EC50 turned out to be 187 nM on human GR [1] (setting [3]) and 127 nM at human GR [2] (setting [7]). For the same compound, the “GITAR > GRAMM % SEP” value at human GR [1] (Table 1) is listed as 33%. The Emax at human GR [1] (setting [4]) is 5 to 100%; at human GR [1] (setting [5]), 79%; on human GR [2] (setting [6]), 46%.
Turning to `C[C@]12Cc3cnn(-c4ccc(F)cc4)c3C=C1CCC[C@@H]2[C@@H](O)Cc1ccccc1` [Example 22 WO 03/086294 A2, reference compound], the values for the EC50 at human GR [1] (setting [8]) and at human GR [2] (setting [11]) were 327 nM and 109 nM, respectively. Also, at human GR [1] (Table 2), the “GITAR > GRAMM % SEP” value is −14%. Also, the Emax at human GR [1] (setting [9]) is 71%; on human GR [2] (setting [10]), 85%.
Regarding `CNC(=O)Cc1ccccc1CC[C@]1(O)CCC2=Cc3c(cnn3-c3ccc(F)cc3)C[C@@]21C` [Example 23, 2-(2-{2-[(4αS,5R)-1-(4-fluorophenyl)-5-hydroxy-4α-methyl-1,4,4α,5,6,7-hexahydrocyclopenta[f]indazol-5-yl]ethyl}phenyl)-N-methylacetamide], the EC50 on human GR [1] (setting [3]) amounted to 263 nM; at human GR [2] (setting [7]), 268 nM. In addition, the “GITAR > GRAMM % SEP” value on human GR [1] (Table 1) stood at 37%. The Emax was 5 to 100% on human GR [1] (setting [4]), 73% at human GR [1] (setting [5]) and 36% at human GR [2] (setting [6]).
